We go through 29 compounds from patent US10851089B2, “Matrix metalloproteinase (MMP) inhibitors and methods of use thereof” (Foresee Pharmaceuticals Co., Ltd., priority 2018, dated 2020).

Molecules are shown by their SMILES. Read-outs that look alike come from different tables or passages of the source.

Holding throughout (type): biochemical
Assay [1] has as its target recombinant human MMP-12 catalytic domain (Homo sapiens (Human), UniProt P39900). The assay can be described thus: MMP-12 inhibitory assay (fluorogenic substrate cleavage). Here is the method: (§1) The inhibitory effect of compounds on the rate of cleaving fluorogenic MMP substrate (Enzo, BML-P128) by recombinant human MMP-12 catalytic domain (Enzo, BML-SE138) was carried out by methods known in the art. Briefly, to each well of a 96-well black opaque plate, all the reagents were sequentially added by pipetting, and the final reaction contained 4 nM of recombinant human MMP-12 catalytic domain, 4 μM of fluorogenic MMP substrate, and various concentrations (0.15 nM to 10,000 nM) of tested compound dilutions in HEPES buffer (pH 7.5) containing 10 mM of CaCl2, 0.01% Brij® 35 (polyoxyethylene (23) lauryl ether), and 0.1 mg/ml of BSA.
(§2) The enzyme and compounds were pre-incubated on a shaker to mix in wells. After an hour of mixing, fluorogenic substrate was added to each well. Reaction without enzyme was used as a blank control in the plate. The plate was then fed into a plate reader to measure fluorescence intensity at Excitation/Emission wavelengths of 340 nm/440 nm every 10 mins for at least 1 hour at 37° C. The IC50 of each compound in MMP-12 inhibition was determined by using a readout obtained at time point 30 minutes.

Assay [2] has as its target recombinant human MMP-1 (Homo sapiens (Human), UniProt P03956). The assay can be described thus: MMP selectivity assay MMP-1. As to the method:
as §1, §2
(§3) The MMP selectivity assay was performed by using other recombinant human MMPs, including MMP-1, MMP-2, MMP-3, MMP-7, MMP-8, MMP-9, MMP-10, MMP-13, and MMP-14. The IC50 of the compounds for the other recombinant human MMPs was determined as described above in Example 1, and are shown in Table 2.

The target of assay [3] is recombinant human MMP-2 (Homo sapiens (Human), UniProt P08253). The experiment in a line: MMP selectivity assay MMP-2. As to the method: as §1, §2, §3
Assay [4] concerns the target recombinant human MMP-3 (Homo sapiens (Human), UniProt P08254). The assay can be described thus: MMP selectivity assay MMP-3. As to the method: as §1, §2, §3
Assay [5] addresses recombinant human MMP-7 (Homo sapiens (Human), UniProt P09237). The experiment in a line: MMP selectivity assay MMP-7. As to the method: as §1, §2, §3
Assay [6] addresses recombinant human MMP-8 (Homo sapiens (Human), UniProt P22894). The experiment in a line: MMP selectivity assay MMP-8. As to the method:
as §1, §2, §3

For assay [7], the target named is recombinant human MMP-9 (Homo sapiens (Human), UniProt P14780). The experiment in a line: MMP selectivity assay MMP-9. Here is the method: as §1, §2, §3
The target of assay [8] is recombinant human MMP-10 (Homo sapiens (Human), UniProt P09238). The assay can be described thus: MMP selectivity assay MMP-10. As to the method:
as §1, §2, §3

Assay [9] deals with recombinant human MMP-13 (Homo sapiens (Human), UniProt P45452). The experiment in a line: MMP selectivity assay MMP-13. Here is the method:
as §1, §2, §3

In assay [10] the target is recombinant human MMP-14 (Homo sapiens (Human), UniProt P50281). The assay can be described thus: MMP selectivity assay MMP-14. Here is the method:
as §1, §2, §3

[11] abbreviates: readout at 30 minutes, read-out: MMP-12 IC50.
Setting [12] is: Table 2 selectivity profile, read-out: MMP-12 activity (IC50).

Sequence of recombinant human MMP-8 (P22894 101-467): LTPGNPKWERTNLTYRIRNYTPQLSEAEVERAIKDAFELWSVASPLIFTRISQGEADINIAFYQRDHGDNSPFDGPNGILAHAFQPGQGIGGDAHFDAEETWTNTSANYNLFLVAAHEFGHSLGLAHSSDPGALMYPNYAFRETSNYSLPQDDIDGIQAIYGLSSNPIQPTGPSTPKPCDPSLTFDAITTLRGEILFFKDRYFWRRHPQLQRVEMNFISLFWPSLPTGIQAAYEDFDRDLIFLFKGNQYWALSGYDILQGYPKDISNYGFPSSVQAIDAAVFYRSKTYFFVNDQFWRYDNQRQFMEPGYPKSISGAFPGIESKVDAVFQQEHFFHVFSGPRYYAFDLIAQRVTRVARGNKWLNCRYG
Sequence of recombinant human MMP-10 (P09238 99-476): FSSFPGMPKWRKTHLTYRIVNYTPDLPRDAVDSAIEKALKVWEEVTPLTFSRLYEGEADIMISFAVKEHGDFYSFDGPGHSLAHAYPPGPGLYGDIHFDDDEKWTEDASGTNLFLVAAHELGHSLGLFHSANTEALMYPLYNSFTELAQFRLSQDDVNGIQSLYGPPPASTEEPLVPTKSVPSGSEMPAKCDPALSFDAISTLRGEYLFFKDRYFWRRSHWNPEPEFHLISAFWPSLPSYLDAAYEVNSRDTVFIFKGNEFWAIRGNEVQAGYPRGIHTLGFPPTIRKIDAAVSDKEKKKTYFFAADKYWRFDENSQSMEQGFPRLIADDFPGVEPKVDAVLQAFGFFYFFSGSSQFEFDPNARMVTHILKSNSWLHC
Sequence of recombinant human MMP-2 (P08253 110-660): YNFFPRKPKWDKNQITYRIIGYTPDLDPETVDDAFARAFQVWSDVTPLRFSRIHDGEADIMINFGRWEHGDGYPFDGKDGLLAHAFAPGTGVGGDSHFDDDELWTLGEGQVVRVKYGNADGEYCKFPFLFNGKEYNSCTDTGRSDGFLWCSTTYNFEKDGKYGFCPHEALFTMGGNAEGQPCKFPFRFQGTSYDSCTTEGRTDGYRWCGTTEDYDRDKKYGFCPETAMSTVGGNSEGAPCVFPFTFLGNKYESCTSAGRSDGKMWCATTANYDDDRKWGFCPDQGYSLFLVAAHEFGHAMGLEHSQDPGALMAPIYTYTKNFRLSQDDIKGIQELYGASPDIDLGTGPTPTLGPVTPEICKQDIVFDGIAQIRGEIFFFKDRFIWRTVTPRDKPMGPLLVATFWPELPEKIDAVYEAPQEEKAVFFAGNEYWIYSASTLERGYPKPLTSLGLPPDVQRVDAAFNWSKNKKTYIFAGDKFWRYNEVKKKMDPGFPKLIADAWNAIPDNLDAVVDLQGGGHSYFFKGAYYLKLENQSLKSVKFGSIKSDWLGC
Sequence of recombinant human MMP-12 catalytic domain (P39900 106-263): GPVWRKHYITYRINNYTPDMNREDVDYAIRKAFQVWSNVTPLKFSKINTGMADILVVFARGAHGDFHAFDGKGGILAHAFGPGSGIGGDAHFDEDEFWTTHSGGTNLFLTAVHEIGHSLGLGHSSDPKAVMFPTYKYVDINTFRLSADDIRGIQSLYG
Sequence of recombinant human MMP-1 (P03956 100-469): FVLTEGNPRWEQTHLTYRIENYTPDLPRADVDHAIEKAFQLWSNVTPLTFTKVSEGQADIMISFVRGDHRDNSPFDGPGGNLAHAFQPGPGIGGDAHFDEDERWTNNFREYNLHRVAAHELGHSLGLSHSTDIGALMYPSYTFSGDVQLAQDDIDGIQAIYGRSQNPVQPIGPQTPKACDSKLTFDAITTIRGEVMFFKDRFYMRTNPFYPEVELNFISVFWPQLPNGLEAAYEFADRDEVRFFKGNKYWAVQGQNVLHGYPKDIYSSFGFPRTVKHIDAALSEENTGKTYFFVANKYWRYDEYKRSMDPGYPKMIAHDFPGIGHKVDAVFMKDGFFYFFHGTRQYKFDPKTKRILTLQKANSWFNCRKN
Sequence of recombinant human MMP-3 (P08254 100-477): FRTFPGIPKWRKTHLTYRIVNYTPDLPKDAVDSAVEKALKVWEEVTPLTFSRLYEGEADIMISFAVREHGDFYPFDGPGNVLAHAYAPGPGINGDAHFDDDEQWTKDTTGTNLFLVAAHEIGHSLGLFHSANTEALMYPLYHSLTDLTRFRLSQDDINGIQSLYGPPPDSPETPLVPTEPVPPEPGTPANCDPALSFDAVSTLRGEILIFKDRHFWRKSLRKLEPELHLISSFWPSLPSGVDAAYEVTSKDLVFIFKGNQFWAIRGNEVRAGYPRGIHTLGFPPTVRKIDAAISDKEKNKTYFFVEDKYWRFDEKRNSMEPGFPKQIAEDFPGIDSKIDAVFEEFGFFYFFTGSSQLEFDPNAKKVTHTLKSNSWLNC
Sequence of recombinant human MMP-7 (P09237 95-267): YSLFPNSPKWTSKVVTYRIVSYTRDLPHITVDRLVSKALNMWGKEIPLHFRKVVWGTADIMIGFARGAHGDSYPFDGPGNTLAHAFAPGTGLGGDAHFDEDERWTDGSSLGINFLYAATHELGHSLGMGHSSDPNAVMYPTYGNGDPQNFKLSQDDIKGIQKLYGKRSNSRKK
Sequence of recombinant human MMP-9 (P14780 94-707): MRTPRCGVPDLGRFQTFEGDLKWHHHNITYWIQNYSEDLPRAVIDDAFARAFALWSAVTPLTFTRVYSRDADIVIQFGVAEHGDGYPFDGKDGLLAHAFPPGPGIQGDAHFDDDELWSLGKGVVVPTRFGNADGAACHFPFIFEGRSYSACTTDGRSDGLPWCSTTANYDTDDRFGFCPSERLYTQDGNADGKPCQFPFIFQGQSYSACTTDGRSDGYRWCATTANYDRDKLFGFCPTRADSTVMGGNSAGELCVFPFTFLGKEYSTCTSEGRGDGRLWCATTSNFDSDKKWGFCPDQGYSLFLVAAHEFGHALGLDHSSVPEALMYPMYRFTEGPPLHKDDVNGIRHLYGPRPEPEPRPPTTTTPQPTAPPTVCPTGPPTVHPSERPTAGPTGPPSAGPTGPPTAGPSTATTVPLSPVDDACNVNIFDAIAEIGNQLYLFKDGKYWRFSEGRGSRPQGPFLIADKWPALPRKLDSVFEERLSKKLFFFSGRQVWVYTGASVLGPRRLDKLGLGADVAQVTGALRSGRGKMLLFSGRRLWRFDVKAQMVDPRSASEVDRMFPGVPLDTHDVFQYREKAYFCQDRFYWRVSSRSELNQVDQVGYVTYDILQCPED

For the compound `Cc1ccnc(COc2ccc(Sc3ccoc3C3NC(=O)NC3=O)cc2)c1` (stereo not shown) [FC-1], the IC50 in [1] (setting [11]) is 100 to 1000 nM.
For the compound `Cc1cccc(COc2ccc(Sc3ccoc3C3NC(=O)NC3=O)cc2)n1` (stereo not shown) [FC-2], the half-maximal inhibitory concentration (IC50) in assay [1] (setting [11]) was in the range of 10 to 100 nM.
Take `Cc1cncc(COc2ccc(Sc3ccoc3C3NC(=O)NC3=O)cc2)c1` (stereo not shown) [FC-3]: the concentration for half-maximal inhibition (IC50) in [1] (setting [11]) is 10 to 100 nM.
Regarding `Cc1cccc(COc2ccc(Sc3ccoc3C3NC(=O)NC3=O)cc2)[n+]1O` (stereo not shown) [FC-5], the IC50 in assay [1] (setting [11]) was over 1000 nM.
On the same count and under the same terms, the same measure for `Cc1cc(COc2ccc(Sc3ccoc3C3NC(=O)NC3=O)cc2)c[n+]([O-])c1` (stereo not shown) [FC-6]: 100 to 1000 nM; for `Cc1cc(COc2ccc(Sc3ccoc3C3NC(=O)NC3=O)cc2)cc[n+]1[O-]` (stereo not shown) [FC-7]: 10 to 100 nM; for `Cc1cccc(COc2ccc(Sc3ccoc3C3(C)NC(=O)NC3=O)cc2)c1` (stereo not shown) [FC-8]: under 10 nM.
Take `CCC1(c2occc2Sc2ccc(OCc3cccc(C)c3)cc2)NC(=O)NC1=O` (stereo not shown) [FC-9]: in assay [1] (setting [11]), the IC50 was 10 to 100 nM.
For `Cc1cccc(COc2ccc(Sc3ccoc3C3(CC(C)C)NC(=O)NC3=O)cc2)c1` (stereo not shown) [FC-10], the IC50 is under 10 nM in assay [1] (setting [12]); under 10 nM in assay [1] (setting [11]); over 10 µM in assay [2]; 1000 to 10000 nM in assay [3]; 100 to 1000 nM in assay [4]; over 10 µM in assay [5]. The IC50 in assay [6] was 1000 to 10000 nM; in [7], 1 to 10 µM; in assay [8], 1000 to 10000 nM; in assay [9], 1000 to 10000 nM; in [10], 1 to 10 µM.
With `CCCC1(c2occc2Sc2ccc(OCc3cccc(C)c3)cc2)NC(=O)NC1=O` (stereo not shown) [FC-11], the IC50 was under 10 nM in [1] (setting [12]); under 10 nM in assay [1] (setting [11]); over 10 µM in assay [2]; 1000 to 10000 nM in [3]; 100 to 1000 nM in [4]; over 10 µM in [5]. In addition, the IC50 in assay [6] was in the range of 1000 to 10000 nM; in assay [7] it was 1 to 10 µM; in assay [8] it was 1000 to 10000 nM; in [9] it was 1000 to 10000 nM; in [10], 1 to 10 µM.
Regarding `Cc1cccc(COc2ccc(Sc3ccoc3C3(C(C)C)NC(=O)NC3=O)cc2)c1` (stereo not shown) [FC-12], the IC50 in [1] (setting [11]) is under 10 nM.
Regarding `COc1cc(COc2ccc(Sc3ccoc3C3NC(=O)NC3=O)cc2)ccn1` (stereo not shown) [FC-13], the IC50 in assay [1] (setting [11]) lay within 10 to 100 nM.
Same read-out and setting: the same measure for `CCOc1cc(COc2ccc(Sc3ccoc3C3NC(=O)NC3=O)cc2)ccn1` (stereo not shown) [FC-14]: 10 to 100 nM; for `CC(C)COc1cc(COc2ccc(Sc3ccoc3C3NC(=O)NC3=O)cc2)ccn1` (stereo not shown) [FC-15]: 100 to 1000 nM; for `CC(C)Oc1cc(COc2ccc(Sc3ccoc3C3NC(=O)NC3=O)cc2)ccn1` (stereo not shown) [FC-16]: 100 to 1000 nM.
As for `NC(=O)c1cccc(COc2ccc(Sc3ccoc3C3NC(=O)NC3=O)cc2)c1` (stereo not shown) [FC-17], the IC50 was under 10 nM in [1] (setting [12]); under 10 nM in assay [1] (setting [11]); over 10 µM in assay [2]; 100 to 1000 nM in assay [3]; 100 to 1000 nM in assay [4]; over 10 µM in assay [5]. Further, the IC50 was 100 to 1000 nM in assay [6]; 1 to 10 µM in assay [7]; 100 to 1000 nM in assay [8]; 100 to 1000 nM in assay [9]; 1 to 10 µM in assay [10].
As for `NC(=O)c1ccc(COc2ccc(Sc3ccoc3C3NC(=O)NC3=O)cc2)cc1` (stereo not shown) [FC-18], the IC50 in assay [1] (setting [11]) was 10 to 100 nM.
On to `CCOc1cccc(COc2ccc(Sc3ccoc3C3NC(=O)NC3=O)cc2)c1` (stereo not shown) [FC-20], for which the IC50 in assay [1] (setting [11]) fell in the range of 100 to 1000 nM.
`CC(C)Oc1cccc(COc2ccc(Sc3ccoc3C3NC(=O)NC3=O)cc2)c1` (stereo not shown) [FC-21]: the half-maximal inhibitory concentration (IC50) in [1] (setting [11]) was 100 to 1000 nM.
In the case of `CCCOc1cccc(COc2ccc(Sc3ccoc3C3NC(=O)NC3=O)cc2)c1` (stereo not shown) [FC-22], the IC50 in assay [1] (setting [11]) is over 1000 nM.
In the case of `O=C1NC(=O)C(c2occc2Sc2ccc(OCc3cccc(CO)c3)cc2)N1` (stereo not shown) [FC-23], the IC50 in assay [1] (setting [12]) was under 10 nM; in assay [1] (setting [11]), under 10 nM; in [2] it was over 10 µM; in [3], 100 to 1000 nM; in assay [4] it was 1000 to 10000 nM; in assay [5] it was over 10 µM. Moreover, the IC50 in assay [6] lay within 1000 to 10000 nM; in [7] it was 1 to 10 µM; in [8], 1000 to 10000 nM; in assay [9] it was 1000 to 10000 nM; in assay [10], 1 to 10 µM.
As for `O=C1NC(=O)C(c2occc2Sc2ccc(OCc3ccccc3CO)cc2)N1` (stereo not shown) [FC-24], in assay [1] (setting [11]), the IC50 was under 10 nM.
Still for that read-out and setting: to `O=C1NC(=O)C(c2occc2Sc2ccc(OCc3ccc(CO)cc3)cc2)N1` (stereo not shown) [FC-25] belongs under 10 nM; to `O=C1NC(=O)C(c2occc2Sc2ccc(OCc3cccc(O)c3)cc2)N1` (stereo not shown) [FC-26], under 10 nM.
On to `Cc1cc(Sc2ccc(OCc3cccc(CO)c3)cc2)c(C2NC(=O)NC2=O)o1` (stereo not shown) [FC-27], for which the concentration for half-maximal inhibition (IC50) in assay [1] (setting [12]) was under 10 nM; in [1] (setting [11]), under 10 nM; in assay [2] it was over 10 µM; in assay [3], 100 to 1000 nM; in assay [4] it was 100 to 1000 nM; in assay [5] it was over 10 µM. Further, the IC50 in [6] was in the range of 100 to 1000 nM; in assay [7], 1 to 10 µM; in assay [8], 100 to 1000 nM; in [9], 100 to 1000 nM; in assay [10] it was 1 to 10 µM.
For the compound `Cc1cccc(COc2ccc(Sc3cc(C)oc3C3NC(=O)NC3=O)cc2)c1` (stereo not shown) [FC-28], the IC50 in assay [1] (setting [11]) lay within 10 to 100 nM.
Still for that read-out and setting: to `NC(=O)c1cc(COc2ccc(Sc3ccoc3C3NC(=O)NC3=O)cc2)ccn1` (stereo not shown) [FC-29] belongs 10 to 100 nM; to `CCC1(c2occc2Sc2ccc(OCc3ccnc(C)c3)cc2)NC(=O)NC1=O` (stereo not shown) [FC-32], under 10 nM.
`Cc1cc(CN(C)c2ccc(Sc3ccoc3C3NC(=O)NC3=O)cc2)ccn1` (stereo not shown) [FC-33]: the IC50 in assay [1] (setting [11]) was over 1000 nM.
